≈ marks a conversion by molar mass, not a printed value. Where “and” joins values, the source holds several entries; their conditions need not be identical. Identical values can stand only once.
Key:
Assay in all cases: ≥ marks a high value that may be exact or a test limit, other limits are often not marked, values filed in µg/mL are converted to µM
[1] = tested on: Mannheimia haemolytica 82-25
Escherichia coli TOP 10 = tested on: Escherichia coli TOP 10
[2] = tested on: Aeromonas veronii ATCC 35624
Aeromonas veronii CL0901 = tested on: Aeromonas veronii CL0901
[3] = tested on: Aeromonas veronii X-1-06909
[4] = tested on: Candida albicans CMCC 98001
[5] = tested on: Escherichia coli CVCC 1515
[6] = tested on: Escherichia coli CVCC 195
[7] = tested on: Escherichia coli CVCC 25922
[8] = tested on: Escherichia coli CVCC O157
[9] = tested on: Pseudomonas aeruginosa CICC 21630
[10] = tested on: Salmonella enterica subsp. enterica serovar Enteritidis CVCC 3377
[11] = tested on: Salmonella enterica subsp. enterica serovar Pullorum CVCC 1789
[12] = tested on: Salmonella enterica subsp. enterica serovar Pullorum CVCC 1809
[13] = tested on: Salmonella enterica subsp. enterica serovar Pullorum CVCC 533
[14] = tested on: Salmonella enterica subsp. enterica serovar Typhimurium ATCC 14028
[15] = tested on: Staphylococcus aureus ATCC 25923
[16] = tested on: Staphylococcus aureus ATCC 43300
[17] = tested on: Staphylococcus aureus ATCC 546
[18] = tested on: Staphylococcus hyicus NCTC 10350
Staphylococcus hyicus = tested on: Staphylococcus hyicus
[19] = tested on: Acinetobacter baumannii ATCC BAA-747
[20] = tested on: Enterococcus faecium ATCC 700221
[21] = tested on: Escherichia coli ATCC 25922
[22] = tested on: Klebsiella pneumoniae ATCC 700603
[23] = tested on: Pseudomonas aeruginosa ATCC 27853
[24] = tested on: Salmonella enterica ATCC 6539
Acinetobacter baumannii = tested on: Acinetobacter baumannii
[25] = tested on: Bacillus cereus ATCC 11778
[26] = tested on: Enterococcus faecalis ATCC 29212
Escherichia coli O157:H7 = tested on: Escherichia coli O157:H7
[27] = tested on: Listeria monocytogenes 10403s
[28] = tested on: Salmonella enterica subsp. enterica serovar Typhimurium ATCC 13311
[29] = tested on: Shigella sonnei ATCC 11060
[30] = tested on: Staphylococcus epidermidis ATCC 12228
Vibrio cholerae O1 Inaba = tested on: Vibrio cholerae O1 Inaba
[31] = tested on: Staphylococcus aureus SH1000
Escherichia coli C600 = tested on: Escherichia coli C600
[32] = tested on: Pseudomonas aeruginosa PAO1
[33] = tested on: Staphylococcus aureus 209P
[34] = tested on: Candida albicans CGMCC 2.2086
Candida albicans = tested on: Candida albicans
[35] = tested on: Candida parapsilosis CGMCC 2.3989
[36] = tested on: Candida tropicalis CGMCC 2.1975

NCCCC[C@H](NC(=O)[C@H](CC(=O)O)NC(=O)[C@H](CC(=O)O)NC(=O)[C@H](CC(=O)O)NC(=O)[C@@H](N)CC(=O)O)C(=O)O [DDDDK]
MIC [1]: ≥ 90 µM

CC[C@H](C)[C@H](NC(=O)[C@H](C)NC(=O)[C@H](CS)NC(=O)[C@H](CC(C)C)NC(=O)[C@@H](NC(=O)[C@H](C)NC(=O)[C@H](CCCN=C(N)N)NC(=O)[C@@H](NC(=O)[C@@H](NC(=O)[C@H](CCCCN)NC(=O)[C@@H](NC(=O)[C@@H](NC(=O)[C@@H]1CCCN1C(=O)CNC(=O)[C@H](CC(C)C)NC(=O)[C@@H](N)Cc1ccccc1)[C@@H](C)CC)[C@@H](C)CC)[C@@H](C)O)C(C)C)C(C)C)C(=O)N[C@@H](CCCCN)C(=O)N[C@@H](CCCCN)C(=O)N[C@@H](CC(C)C)C(N)=O [FLGPIIKTVRAVLCAIKKL]
MIC (Escherichia coli TOP 10): 12 µM (≈ 25 µg/mL)

CC(C)[C@@H]1NC(=O)CNC(=O)[C@H](CC(N)=O)NC(=O)[C@H](CCCN=C(N)N)NC(=O)[C@H](Cc2ccc(O)cc2)NC(=O)[C@H](C(C)C)NC(=O)[C@@H](NC(=O)[C@@H](NC(=O)[C@H](CC(N)=O)NC(=O)[C@H](Cc2c[nH]c3ccccc23)NC(=O)[C@H](C)NC(=O)[C@H](Cc2ccccc2)NC(=O)CN)C(C)C)CSSC[C@@H](C(=O)N[C@@H](Cc2cnc[nH]2)C(=O)N[C@@H](CCCN=C(N)N)C(=O)N2CCC[C@H]2C(=O)N[C@@H](C)C(=O)N[C@@H](CC(N)=O)C(N)=O)NC(=O)[C@H](C(C)C)NC(=O)[C@H](CCCN=C(N)N)NC1=O [GFAWNVCVYRNGVRVCHRPAN]
MIC [2]: 26.5 µM (≈ 63.9 µg/mL)
MIC (Aeromonas veronii CL0901): 26.5 µM (≈ 63.9 µg/mL)
MIC [3]: 26.5 µM (≈ 63.9 µg/mL)
MIC [4]: ≥ 52.9 µM
MIC [5]: 1.65 µM (≈ 4 µg/mL)
MIC [6]: 3.31 µM (≈ 7.99 µg/mL)
MIC [7]: 3.31 µM (≈ 7.99 µg/mL)
MIC [8]: 3.31 µM (≈ 7.99 µg/mL)
MIC [9]: 26.5 µM (≈ 63.9 µg/mL)
MIC [10]: 0.827 µM (≈ 2 µg/mL)
MIC [11]: 6.62 µM (≈ 16 µg/mL)
MIC [12]: 3.31 µM (≈ 7.99 µg/mL)
MIC [13]: 13.2 µM (≈ 32 µg/mL)
MIC [14]: 6.62 µM (≈ 16 µg/mL)
MIC [15]: > 26.5 µM
MIC [16]: > 26.5 µM
MIC [17]: 26.5 µM (≈ 63.9 µg/mL)
MIC [18]: ≥ 52.9 µM
MIC (Staphylococcus hyicus): 26.5 µM (≈ 63.9 µg/mL)

NCC(=O)NCC(=O)N[C@@H](Cc1cnc[nH]1)C(=O)O [GGH]
MIC [19]: ≥ 476 µM
MIC [20]: ≥ 476 µM
MIC [21]: > 476 µM
MIC [22]: > 476 µM
MIC [23]: > 476 µM
MIC [24]: ≥ 476 µM
MIC [16]: > 476 µM

CC[C@H](C)[C@H](NC(=O)[C@H](CCCN=C(N)N)NC(=O)[C@H](CCCCN)NC(=O)[C@H](C)NC(=O)[C@@H](NC(=O)[C@@H](N)CCCCN)[C@@H](C)CC)C(=O)N[C@@H](Cc1c[nH]c2ccccc12)C(=O)N[C@@H](CCCCN)C(=O)N[C@H](C(=O)N[C@@H](CC(C)C)C(=O)N[C@@H](CCCN=C(N)N)C(=O)N[C@@H](CCCN=C(N)N)C(=O)N[C@@H](CCCN=C(N)N)C(=O)N[C@@H](CC(C)C)C(=O)N[C@@H](Cc1ccccc1)C(=O)N[C@@H](CCCN=C(N)N)C(N)=O)[C@@H](C)CC [KIAKRIWKILRRRLFR]
MIC (Acinetobacter baumannii): 3.63 µM (≈ 7.81 µg/mL)
MIC [25]: 1.82 µM (≈ 3.91 µg/mL)
MIC [26]: 7.26 µM (≈ 15.6 µg/mL)
MIC [21]: 3.63 µM (≈ 7.81 µg/mL)
MIC (Escherichia coli O157:H7): 29 µM (≈ 62.5 µg/mL)
MIC [27]: 1.82 µM (≈ 3.91 µg/mL)
MIC [23]: 3.63 µM (≈ 7.81 µg/mL)
MIC [28]: 0.905 µM (≈ 1.95 µg/mL)
MIC [29]: 1.82 µM (≈ 3.91 µg/mL)
MIC [15]: 3.63 µM (≈ 7.81 µg/mL)
MIC [30]: 1.82 µM (≈ 3.91 µg/mL)
MIC (Vibrio cholerae O1 Inaba): 1.82 µM (≈ 3.91 µg/mL)

CC[C@H](C)[C@H](NC(=O)[C@H](CC(=O)O)NC(=O)[C@H](CC(C)C)NC(=O)[C@H](CC(C)C)NC(=O)[C@@H](N)CCCCN)C(=O)N[C@H](C(=O)N[C@@H](CCCCN)C(=O)N[C@@H](CCCCN)C(=O)N[C@H](C(=O)N[C@H](C(=O)NCC(=O)N[C@@H](C)C(=O)N[C@@H](CC(C)C)C(=O)NCC(N)=O)C(C)C)C(C)C)C(C)C [KLLDIVKKVVGALG]
MIC [31]: ≥ 100 µM

CC[C@H](C)[C@@H]1NC(=O)CNC(=O)[C@H](CCCN=C(N)N)NC(=O)[C@H](Cc2ccc(O)cc2)NC(=O)[C@@H]2CSSC[C@H](NC1=O)C(=O)N[C@@H](Cc1ccc(O)cc1)C(=O)N[C@@H](CCCN=C(N)N)C(=O)N[C@@H](CCCN=C(N)N)C(=O)N[C@H](C(=O)N[C@@H](CCCN=C(N)N)C(=O)O)CSSC[C@H](NC(=O)[C@H](Cc1c[nH]c3ccccc13)NC(=O)[C@@H](N)CCCCN)C(=O)N[C@@H](Cc1ccccc1)C(=O)N[C@@H](CCCN=C(N)N)C(=O)N[C@@H](CO)C(=O)N2 [KWCFRSCYRGICYRRCR]
MIC (Escherichia coli C600): 1.56 µM (≈ 3.51 µg/mL)
MIC [32]: 12.5 µM (≈ 28.2 µg/mL)
MIC [33]: 6.25 µM (≈ 14.1 µg/mL)

CC[C@H](C)[C@H](NC(=O)CNC(=O)[C@H](CCCN=C(N)N)NC(=O)[C@H](Cc1c[nH]c2ccccc12)NC(=O)[C@H](CC(C)C)NC(=O)[C@H](CC(C)C)NC(=O)[C@H](Cc1c[nH]c2ccccc12)NC(=O)[C@H](CCCN=C(N)N)NC(=O)CNC(=O)[C@@H](NC(=O)[C@@H](N)CCCN=C(N)N)[C@@H](C)CC)C(=O)N[C@@H](CCCN=C(N)N)C(=O)N[C@@H](CCCN=C(N)N)C(=O)N[C@H](C(=O)NCC(=O)N[C@@H](CCCN=C(N)N)C(=O)N[C@@H](Cc1c[nH]c2ccccc12)C(=O)N[C@@H](CC(C)C)C(N)=O)[C@@H](C)CC [RIGRWLLWRGIRRIGRWL]
MIC [34]: 4 µM (≈ 9.45 µg/mL)
MIC (Candida albicans): 2.83 µM and 4 µM
MIC [35]: 4 µM (≈ 9.45 µg/mL)
MIC [36]: 2 µM (≈ 4.73 µg/mL)

Reference: DBAASP
